Tested on: K12877-001-R-J1-PDC complex spheroid viability
Experiment: Anticancer human tumor K12877-001-R-J1-PDC patient-derived lung adenocarcinoma cell line growth inhibition [RAS]
Settings: for viability, T/C: stronger effect = lower value
In short: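 Tumour cells grown as complex spheroids with HUVEC endothelial cells and mesenchymal stem cells, treated with RAS pathway inhibitor combinations. Each agent spans half-log steps from near clinical Cmax, or 10 microM where Cmax is unknown.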

[1] = curve of first compound, second compound 0.000949 µM
[2] = curve of first compound, second compound 0.003 µM
[3] = curve of first compound, second compound 0.00949 µM
[4] = curve of first compound, second compound 0.03 µM
[5] = curve of first compound, second compound 0.0949 µM
[6] = curve of first compound, second compound 0.3 µM
[7] = second compound 0.000949 µM, first compound 0.0316 µM
[8] = second compound 0.000949 µM, first compound 0.1 µM
[9] = second compound 0.000949 µM, first compound 0.316 µM
[10] = second compound 0.000949 µM, first compound 1 µM
[11] = second compound 0.000949 µM, first compound 3.16 µM
[12] = second compound 0.000949 µM, first compound 10 µM
[13] = second compound 0.003 µM, first compound 0.0316 µM
[14] = second compound 0.003 µM, first compound 0.1 µM
[15] = second compound 0.003 µM, first compound 0.316 µM
[16] = second compound 0.003 µM, first compound 1 µM
[17] = second compound 0.003 µM, first compound 3.16 µM
[18] = second compound 0.003 µM, first compound 10 µM
[19] = second compound 0.00949 µM, first compound 0.0316 µM
[20] = second compound 0.00949 µM, first compound 0.1 µM
[21] = second compound 0.00949 µM, first compound 0.316 µM
[22] = second compound 0.00949 µM, first compound 1 µM
[23] = second compound 0.00949 µM, first compound 3.16 µM
[24] = second compound 0.00949 µM, first compound 10 µM
[25] = second compound 0.03 µM, first compound 0.0316 µM
[26] = second compound 0.03 µM, first compound 0.1 µM
[27] = second compound 0.03 µM, first compound 0.316 µM
[28] = second compound 0.03 µM, first compound 1 µM
[29] = second compound 0.03 µM, first compound 3.16 µM
[30] = second compound 0.03 µM, first compound 10 µM
[31] = second compound 0.0949 µM, first compound 0.0316 µM
[32] = second compound 0.0949 µM, first compound 0.1 µM
[33] = second compound 0.0949 µM, first compound 0.316 µM
[34] = second compound 0.0949 µM, first compound 1 µM
[35] = second compound 0.0949 µM, first compound 3.16 µM
[36] = second compound 0.0949 µM, first compound 10 µM
[37] = second compound 0.3 µM, first compound 0.0316 µM
[38] = second compound 0.3 µM, first compound 0.1 µM
[39] = second compound 0.3 µM, first compound 0.316 µM
[40] = second compound 0.3 µM, first compound 1 µM
[41] = second compound 0.3 µM, first compound 3.16 µM
[42] = second compound 0.3 µM, first compound 10 µM
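Further: spheroids exposed to agents for one week before readout.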

NC1c2ccccc2OC12CCN(c1cnc3c(N4CCCc5ncccc54)n[nH]c3n1)CC2 (stereo not drawn) + C=CC(=O)N1CCN(c2nc(OCC3CCCN3C)nc3c(F)c(-c4nc(N)cc(C)c4C(F)(F)F)c(Cl)cc23)C(C)C1
IC50 (curve of first compound, second compound 0.00316 µM): > 10 µM
IC50 (curve of first compound, second compound 0.01 µM): 8.9 µM
IC50 (curve of first compound, second compound 0.0316 µM): 6.88 µM
IC50 (curve of first compound, second compound 0.1 µM): 5.24 µM
IC50 (curve of first compound, second compound 0.316 µM): 5.89 µM
IC50 (curve of first compound, second compound 1 µM): 9.97 µM
viability, T/C (second compound 0.00316 µM, first compound 0.0316 µM): 82.2%
viability, T/C (second compound 0.00316 µM, first compound 0.1 µM): 89.4%
viability, T/C (second compound 0.00316 µM, first compound 0.316 µM): 83.9%
viability, T/C (second compound 0.00316 µM, first compound 1 µM): 84.5%
viability, T/C (second compound 0.00316 µM, first compound 3.16 µM): 63.4%
viability, T/C (second compound 0.00316 µM, first compound 10 µM): 52.7%
viability, T/C (second compound 0.01 µM, first compound 0.0316 µM): 82.7%
viability, T/C (second compound 0.01 µM, first compound 0.1 µM): 92.4%
viability, T/C (second compound 0.01 µM, first compound 0.316 µM): 84.6%
viability, T/C (second compound 0.01 µM, first compound 1 µM): 78.1%
viability, T/C (second compound 0.01 µM, first compound 3.16 µM): 65.5%
viability, T/C (second compound 0.01 µM, first compound 10 µM): 48.2%
viability, T/C (second compound 0.0316 µM, first compound 0.0316 µM): 89.8%
viability, T/C (second compound 0.0316 µM, first compound 0.1 µM): 79.6%
viability, T/C (second compound 0.0316 µM, first compound 0.316 µM): 75.4%
viability, T/C (second compound 0.0316 µM, first compound 1 µM): 69.3%
viability, T/C (second compound 0.0316 µM, first compound 3.16 µM): 57.5%
viability, T/C (second compound 0.0316 µM, first compound 10 µM): 45.9%
viability, T/C (second compound 0.1 µM, first compound 0.0316 µM): 97.3%
viability, T/C (second compound 0.1 µM, first compound 0.1 µM): 79.3%
viability, T/C (second compound 0.1 µM, first compound 0.316 µM): 67.4%
viability, T/C (second compound 0.1 µM, first compound 1 µM): 64.5%
viability, T/C (second compound 0.1 µM, first compound 3.16 µM): 54.7%
viability, T/C (second compound 0.1 µM, first compound 10 µM): 44.4%
viability, T/C (second compound 0.316 µM, first compound 0.0316 µM): 81.5%
viability, T/C (second compound 0.316 µM, first compound 0.1 µM): 73.5%
viability, T/C (second compound 0.316 µM, first compound 0.316 µM): 70.3%
viability, T/C (second compound 0.316 µM, first compound 1 µM): 63.4%
viability, T/C (second compound 0.316 µM, first compound 3.16 µM): 48.9%
viability, T/C (second compound 0.316 µM, first compound 10 µM): 48.9%
viability, T/C (second compound 1 µM, first compound 0.0316 µM): 81.9%
viability, T/C (second compound 1 µM, first compound 0.1 µM): 95.9%
viability, T/C (second compound 1 µM, first compound 0.316 µM): 66.7%
viability, T/C (second compound 1 µM, first compound 1 µM): 76.7%
viability, T/C (second compound 1 µM, first compound 3.16 µM): 55.5%
viability, T/C (second compound 1 µM, first compound 10 µM): 50.7%

CC(=O)OC12COC1CC(O)C1(C)C(=O)C(O)C3=C(C)C(OC(=O)C(O)C(NC(=O)OC(C)(C)C)c4ccccc4)CC(O)(C(OC(=O)c4ccccc4)C21)C3(C)C (stereo not drawn) + CCn1c(-c2cccnc2C(C)OC)c2c3cc(ccc31)N1CCOC(CC(NC(=O)C(C(C)C)N(C)C(=O)C3(F)CCN(C(=O)C#CC(C)(C)N(C)C)CC3)C(=O)N3CCCC(N3)C(=O)OCC(C)(C)C2)C1
IC50 [1]: < 0.0316 µM
IC50 [2]: < 0.0316 µM
IC50 [3]: < 0.0316 µM
IC50 [4]: < 0.0316 µM
IC50 [5]: < 0.0316 µM
IC50 [6]: < 0.0316 µM
viability, T/C [7]: 4.23%
viability, T/C [8]: 2.96%
viability, T/C [9]: 3.64%
viability, T/C [10]: 3.51%
viability, T/C [11]: 3.12%
viability, T/C [12]: 6.19%
viability, T/C [13]: 4.57%
viability, T/C [14]: 3.08%
viability, T/C [15]: 3.09%
viability, T/C [16]: 2.71%
viability, T/C [17]: 3.37%
viability, T/C [18]: 6.21%
viability, T/C [19]: 3.31%
viability, T/C [20]: 2.69%
viability, T/C [21]: 2.28%
viability, T/C [22]: 2.12%
viability, T/C [23]: 2.87%
viability, T/C [24]: 5.23%
viability, T/C [25]: 3.32%
viability, T/C [26]: 2.79%
viability, T/C [27]: 2.34%
viability, T/C [28]: 2.42%
viability, T/C [29]: 2.51%
viability, T/C [30]: 5.78%
viability, T/C [31]: 2.88%
viability, T/C [32]: 2.42%
viability, T/C [33]: 2.13%
viability, T/C [34]: 2.21%
viability, T/C [35]: 2.11%
viability, T/C [36]: 4.05%
viability, T/C [37]: 3.02%
viability, T/C [38]: 2.23%
viability, T/C [39]: 2.13%
viability, T/C [40]: 1.55%
viability, T/C [41]: 1.93%
viability, T/C [42]: 3.39%

Cc1nc(N2CCC3(CC2)COC(C)C3N)c(CO)nc1Sc1ccnc(N)c1Cl (stereo not drawn) + CCn1c(-c2cc(N3CCN(C)CC3)cnc2C(C)OC)c2c3cc(ccc31)-c1csc(n1)CC(NC(=O)C1CC1C)C(=O)N1CCCC(N1)C(=O)OCC(C)(C)C2
IC50 [1]: > 10 µM
IC50 [2]: > 10 µM
IC50 [3]: > 10 µM
IC50 [4]: > 10 µM
IC50 [5]: > 10 µM
IC50 [6]: 8.66 µM
viability, T/C [7]: 77.8%
viability, T/C [8]: 69.4%
viability, T/C [9]: 71.7%
viability, T/C [10]: 59%
viability, T/C [11]: 66.7%
viability, T/C [12]: 58.7%
viability, T/C [13]: 63.6%
viability, T/C [14]: 57.7%
viability, T/C [15]: 62.1%
viability, T/C [16]: 63.4%
viability, T/C [17]: 69.3%
viability, T/C [18]: 71.3%
viability, T/C [19]: 72.2%
viability, T/C [20]: 70.8%
viability, T/C [21]: 79.8%
viability, T/C [22]: 73.4%
viability, T/C [23]: 71.8%
viability, T/C [24]: 56.4%
viability, T/C [25]: 97.1%
viability, T/C [26]: 93.7%
viability, T/C [27]: 93.9%
viability, T/C [28]: 81%
viability, T/C [29]: 75.9%
viability, T/C [30]: 59.5%
viability, T/C [31]: 98.8%
viability, T/C [32]: 94%
viability, T/C [33]: 94.5%
viability, T/C [34]: 76.2%
viability, T/C [35]: 67.2%
viability, T/C [36]: 50.2%
viability, T/C [37]: 97.5%
viability, T/C [38]: 86.1%
viability, T/C [39]: 81.5%
viability, T/C [40]: 71.2%
viability, T/C [41]: 65.6%
viability, T/C [42]: 45.6%

Nc1ccn(C2OC(CO)C(O)C2(F)F)c(=O)n1 (stereo not drawn)
viability, T/C (compound 0.00316 µM): 105% [middle of 4 runs]
viability, T/C (compound 0.01 µM): 90.8% [middle of 4 runs]
viability, T/C (compound 0.0316 µM): 7.36% [middle of 4 runs]
viability, T/C (compound 0.1 µM): 5.6% [middle of 4 runs]
viability, T/C (compound 0.316 µM): 5.52% [middle of 4 runs]
viability, T/C (compound 1 µM): 5.95% [middle of 4 runs]
IC50 (curve of compound): 17.6 nM [middle of 4 runs]

Reference: PubChem BioAssay AID2060894 (Molecular Pharmacology Branch, DTP, NCI, 2025)
